Our source for the IC50 values is patent publication US8846699B2, “Quinazoline derivatives as a multiplex inhibitor and method for the preparation thereof” (Hanmi Pharm. Co., Ltd., priority 2005, dated 2014).

For assay [1], the system named is Human Umbilical Vein Endothelial Cell (HUVEC). The assay is described as follows: Inhibitory effect on growth of human umbilical vein endothelial cell (HUVEC), MTS. The conditions noted are these: 10 ng/ml VEGF, absorbance 490 nm. It counts as cell-based.
The target in another assay is VEGFR2 (KDR) (Homo sapiens (Human), UniProt P35968). In words: VEGFR2 (KDR) enzyme assay, fluorescence polarization. The conditions noted are these: 5 μM ATP, poly(Glu, Tyr) substrate. In kind it is biochemical. In outline: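 Autophosphorylation read by fluorescence polarization: VEGFR2 (Proquinase) at 200 ng/10 μl with 5 μM ATP and 10 ng/ml poly(Glu,Tyr) 4:1, in 20 mM HEPES pH 7.4, 5 mM MgCl2, 2 mM MnCl2, 50 μM Na3VO4. Reaction 1 h at room temperature, EDTA stop, then anti-phosphotyrosine antibody/tracer for 30 min in the dark.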

A further assay addresses EGFR1 (HER-1) (Homo sapiens (Human), UniProt P00533). In words: EGFR1 (HER-1) enzyme assay, fluorescence polarization. It counts as biochemical. The conditions noted are these: 100 μM ATP, poly(Glu, Tyr) substrate. (In general: Fluorescence polarisation rises when a labelled molecule tumbles more slowly, as on binding a larger partner.)
The test system of assay [2] is skin cancer cell line, A431. The assay is described as follows: Inhibitory effect on growth of cancer cell line A431, SRB. It counts as cell-based. The conditions noted are these: overexpressed EGFR1 (HER-1). In outline: (§1)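 Cells were cultured in DMEM with 10% FBS. Compounds were applied at 10 μM with 10-fold serial dilution to 10^−4, DMSO <1%, for 72 h at 37 °C. Cells were then TCA-fixed and stained with 0.4% SRB, and absorbance was read at 570 nm after solubilisation in 10 mM Tris base.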

The test system of assay [3] is breast cancer cell line, SK-Br3. The assay is described as follows: Inhibitory effect on growth of cancer cell line SK-Br3, SRB. It counts as cell-based. As to conditions: overexpressed EGFR2 (HER-2). In outline: as §1
For assay [4], the system named is colon and rectal cancer cell line, SW-620. In words: Inhibitory effect on growth of cancer cell line SW-620, SRB. It counts as cell-based. As to conditions: not having overexpressed EGFR and EGFR2. In short, it runs like this:
as §1

pIC50: −log10 of the molar value.

Sequence of VEGFR2 (KDR) (P35968 20-1356): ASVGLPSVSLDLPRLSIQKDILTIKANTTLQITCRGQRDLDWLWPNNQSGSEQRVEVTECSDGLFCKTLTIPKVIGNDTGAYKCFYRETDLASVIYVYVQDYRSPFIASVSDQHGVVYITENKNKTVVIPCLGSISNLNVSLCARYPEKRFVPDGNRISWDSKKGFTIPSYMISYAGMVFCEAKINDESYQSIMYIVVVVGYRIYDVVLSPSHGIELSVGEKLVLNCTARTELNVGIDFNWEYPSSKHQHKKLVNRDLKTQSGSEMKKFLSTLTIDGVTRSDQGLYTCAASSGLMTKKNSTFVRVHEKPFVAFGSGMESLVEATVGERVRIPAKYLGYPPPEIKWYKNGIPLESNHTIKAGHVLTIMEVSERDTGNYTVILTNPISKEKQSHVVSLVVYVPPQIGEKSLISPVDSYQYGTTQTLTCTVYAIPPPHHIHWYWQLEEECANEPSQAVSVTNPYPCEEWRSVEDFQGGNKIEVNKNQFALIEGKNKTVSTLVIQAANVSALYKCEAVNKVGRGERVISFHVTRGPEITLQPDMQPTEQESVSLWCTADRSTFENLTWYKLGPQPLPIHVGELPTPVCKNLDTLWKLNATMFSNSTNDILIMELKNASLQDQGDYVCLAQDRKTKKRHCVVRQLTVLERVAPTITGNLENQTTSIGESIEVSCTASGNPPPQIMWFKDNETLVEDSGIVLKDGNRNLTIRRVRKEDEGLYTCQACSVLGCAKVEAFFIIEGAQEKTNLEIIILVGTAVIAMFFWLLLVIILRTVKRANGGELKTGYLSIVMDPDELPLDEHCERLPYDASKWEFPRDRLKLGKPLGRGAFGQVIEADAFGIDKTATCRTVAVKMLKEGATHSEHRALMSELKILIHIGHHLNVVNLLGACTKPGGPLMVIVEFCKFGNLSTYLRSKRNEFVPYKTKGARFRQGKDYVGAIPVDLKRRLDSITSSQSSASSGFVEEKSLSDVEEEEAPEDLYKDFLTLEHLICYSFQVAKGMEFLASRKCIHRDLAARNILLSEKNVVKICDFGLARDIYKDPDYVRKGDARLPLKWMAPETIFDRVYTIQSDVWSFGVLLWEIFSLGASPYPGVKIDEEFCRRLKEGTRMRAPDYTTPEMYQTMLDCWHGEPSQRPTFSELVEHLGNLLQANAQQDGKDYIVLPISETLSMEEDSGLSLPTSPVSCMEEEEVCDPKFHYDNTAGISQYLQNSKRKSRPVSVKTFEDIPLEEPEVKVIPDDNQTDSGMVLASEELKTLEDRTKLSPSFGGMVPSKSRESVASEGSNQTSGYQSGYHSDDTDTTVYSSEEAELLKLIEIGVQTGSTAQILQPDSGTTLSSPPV

Consider “N-{2-[6-acryloylamino-4-(4-bromo-2-fluoro-phenylamino)-quinazolin-7-yloxy]-ethyl}-butylamide [Example 51]”, for which the pIC50 in assay [1] (96 hours) is 6.01; against VEGFR2 (KDR), 6.02; on EGFR1 (HER-1) it was 7.49; in assay [2] (72 hours) it was 7.48; in assay [3] (72 hours) it was 6.71; in assay [4] (72 hours), 5.00.
Take `C=CC(=O)Nc1cc2c(Nc3ccc(Br)cc3F)ncnc2cc1OCc1ccncc1` [Example 6, N-[4-(4-bromo-2-fluoro-phenylamino)-7-(pyridin-4-ylmethoxy)-quinazolin-6-yl]-acrylamide]: the pIC50 in assay [1] (Homo sapiens, 96 h) was 6.35; against VEGFR2 (KDR), 6.30; against EGFR1 (HER-1), 7.25; in assay [2] (Homo sapiens, A-431, 72 h), 6.77; in assay [3] (Homo sapiens, SK-BR-3, 72 h), 5.87; in assay [4] (Homo sapiens, 72 h) it was 5.07.
On to `C=CC(=O)Nc1cc2c(Nc3ccc(Br)cc3F)ncnc2cc1OCCNC(=O)CN(C)CC` [Example 56, N-(4-(4-bromo-2-fluoro-phenylamino)-7-{2-[2-(ethyl-methyl-amino)-acetylamino]-ethoxy}-quinazolin-6-yl)-acrylamide], for which the pIC50 was 6.16 in assay [1] (Homo sapiens, 96 h); 6.18 on VEGFR2 (KDR); 6.70 on EGFR1 (HER-1); 6.82 in assay [2] (Homo sapiens, A-431, 72 h); 6.89 in assay [3] (Homo sapiens, SK-BR-3, 72 h); 5.00 in assay [4] (Homo sapiens, 72 h).
In the case of `C=CC(=O)Nc1cc2c(Nc3ccc(Br)cc3F)ncnc2cc1OCCNC(C)=O` [Example 18, N-[7-(2-acetylamino-ethoxy)-4-(4-bromo-2-fluoro-phenylamino)-quinazolin-6-yl]-acrylamide], the negative logarithm of the IC50 (pIC50) in assay [1] (Homo sapiens, 96 h) was 7.28; at VEGFR2 (KDR) it was 7.02; against EGFR1 (HER-1), 8.70; in assay [2] (Homo sapiens, A-431, 72 h), 7.82; in assay [3] (Homo sapiens, SK-BR-3, 72 h), 6.86; in assay [4] (Homo sapiens, 72 h) it was 5.09.
For the compound `C=CC(=O)Nc1cc2c(Nc3ccc(Br)cc3F)ncnc2cc1OCCNC(=O)C(F)F` [Example 22, N-{4-(4-bromo-2-fluoro-phenylamino)-7-[2-(2,2-difluoro-acetylamino)-ethoxy]-quinazolin-6-yl}-acrylamide], the pIC50 in assay [1] (Homo sapiens, 96 h) was 6.02; at VEGFR2 (KDR) it was 6.28; against EGFR1 (HER-1) it was 8.30; in assay [2] (Homo sapiens, A-431, 72 h), 7.35; in assay [3] (Homo sapiens, SK-BR-3, 72 h), 7.04; in assay [4] (Homo sapiens, 72 h), 5.01.
Take `C=CC(=O)Nc1cc2c(Nc3ccc(Br)cc3F)ncnc2cc1OCC1CCN(C(=O)C=C)CC1` [Example 5, N-[7-(1-acryloyl-piperidin-4-ylmethoxy)-4-(4-bromo-2-fluoro-phenylamino)-quinazolin-6-yl]-acrylamide]: the pIC50 in assay [1] (Homo sapiens, 96 h) was 7.47; against VEGFR2 (KDR), 6.69; at EGFR1 (HER-1) it was 8.52; in assay [2] (Homo sapiens, A-431, 72 h), 7.43; in assay [3] (Homo sapiens, SK-BR-3, 72 h), 6.62; in assay [4] (Homo sapiens, 72 h), 5.63.
On to `C=CC(=O)Nc1cc2c(Nc3ccc(Br)cc3F)ncnc2cc1OCCNC(=O)CN1CCC1` [Example 110, N-[7-[2-(2-azetidin-1-yl-acetylamino)-ethoxy]-4-(4-bromo-2-fluoro-phenylamino)-quinazolin-6-yl]-acrylamide], for which the pIC50 in assay [1] (Homo sapiens, 96 h) was 6.02; against VEGFR2 (KDR), 6.02; against EGFR1 (HER-1), 6.01; in assay [2] (Homo sapiens, A-431, 72 h), 5.99; in assay [3] (Homo sapiens, SK-BR-3, 72 h), 5.86; in assay [4] (Homo sapiens, 72 h), 5.34.
On to `C=CC(=O)Nc1cc2c(Nc3cc(Cl)c(Br)cc3F)ncnc2cc1OCCNC(=O)CC` [Example 134, N-[4-(4-bromo-5-chloro-2-fluoro-phenylamino)-7-(2-propionylamino-ethoxy)-quinazolin-6-yl]-acrylamide], for which the pIC50 in assay [1] (Homo sapiens, 96 h) is 5.97; against VEGFR2 (KDR), 6.76; against EGFR1 (HER-1), 7.89; in assay [2] (Homo sapiens, A-431, 72 h) it was 7.74; in assay [3] (Homo sapiens, SK-BR-3, 72 h), 7.21; in assay [4] (Homo sapiens, 72 h), 5.02.
In the case of `C=CC(=O)Nc1cc2c(Nc3ccc(Br)cc3F)ncnc2cc1OCCCNC(=O)CN(C)C` [Example 12, N-{4-(4-bromo-2-fluoro-phenylamino)-7-[3-(2-dimethylamino-acetylamino)-propoxy]-quinazolin-6-yl}-acrylamide], the pIC50 was 6.81 in assay [1] (Homo sapiens, 96 h); 6.46 against VEGFR2 (KDR); 8.70 against EGFR1 (HER-1); 7.77 in assay [2] (Homo sapiens, A-431, 72 h); 6.80 in assay [3] (Homo sapiens, SK-BR-3, 72 h); 5.60 in assay [4] (Homo sapiens, 72 h).
Turning to `C=CC(=O)Nc1cc2c(Nc3ccc(Br)cc3F)ncnc2cc1OCCNC(=O)N1CCN(C(C)=O)CC1` [Example 95, 4-acetyl-piperazine-1-carboxylic acid {2-[6-acryloylamino-4-(4-bromo-2-fluoro-phenylamino)-quinazolin-7-yloxy]-ethyl}-amide], the pIC50 in assay [1] (Homo sapiens, 96 h) is 6.10; on VEGFR2 (KDR), 6.11; against EGFR1 (HER-1) it was 7.12; in assay [2] (Homo sapiens, A-431, 72 h) it was 7.07; in assay [3] (Homo sapiens, SK-BR-3, 72 h), 6.63; in assay [4] (Homo sapiens, 72 h), 5.00.
In the case of `C=CC(=O)Nc1cc2c(Nc3ccc(Br)cc3F)ncnc2cc1SCCNC(C)=O` [Example 43, N-[7-(2-acetylamino-ethylsulfanyl)-4-(4-bromo-2-fluoro-phenylamino)-quinazolin-6-yl]-acrylamide], the pIC50 in assay [1] (Homo sapiens, 96 h) was 6.01; at VEGFR2 (KDR), 6.11; against EGFR1 (HER-1), 6.96; in assay [2] (Homo sapiens, A-431, 72 h), 6.98; in assay [3] (Homo sapiens, SK-BR-3, 72 h), 5.36; in assay [4] (Homo sapiens, 72 h), 5.43.
On to `C=CC(=O)Nc1cc2c(Nc3ccc(Br)cc3F)ncnc2cc1OCCNCC(C)=O` [Example 55, N-{4-(4-bromo-2-fluoro-phenylamino)-7-[2-(2-oxo-propylamino)-ethoxy]-quinazolin-6-yl}-acrylamide], for which the pIC50 in assay [1] (Homo sapiens, 96 h) was 6.44; against VEGFR2 (KDR), 6.33; against EGFR1 (HER-1) it was 6.23; in assay [2] (Homo sapiens, A-431, 72 h), 6.37; in assay [3] (Homo sapiens, SK-BR-3, 72 h) it was 6.36; in assay [4] (Homo sapiens, 72 h), 5.34.
Take `C=CC(=O)Nc1cc2c(Nc3ccc(Br)c(Cl)c3F)ncnc2cc1OCCNC(=O)NC(C)(C)C` [Example 54, N-{4-(4-bromo-3-chloro-2-fluoro-phenylamino)-7-[2-(3-t-butyl-ureido)-ethoxy]-quinazolin-6-yl}-acrylamide]: the pIC50 is 6.25 in assay [1] (Homo sapiens, 96 h); 6.37 against VEGFR2 (KDR); 7.35 on EGFR1 (HER-1); 7.23 in assay [2] (Homo sapiens, A-431, 72 h); 6.34 in assay [3] (Homo sapiens, SK-BR-3, 72 h); 5.00 in assay [4] (Homo sapiens, 72 h).
Turning to “N-{2-[6-acryloylamino-4-(4-bromo-3-chloro-2-fluoro-phenylamino)-quinazolin-7-yloxy]-ethyl}-4-dimethylamino-butylamide [Example 148]”, the pIC50 in assay [1] (96 hours) was 6.46; against VEGFR2 (KDR), 6.69; on EGFR1 (HER-1) it was 7.55; in assay [2] (72 hours), 7.52; in assay [3] (72 hours) it was 7.40; in assay [4] (72 hours), 5.63.
For `C=CC(=O)Nc1cc2c(Nc3cc(Cl)c(Br)cc3F)ncnc2cc1OCCNC(C)=O` [Example 133, N-[7-(2-acetylamino-ethoxy)-4-(4-bromo-5-chloro-2-fluoro-phenylamino)-quinazolin-6-yl]-acrylamide], the pIC50 in assay [1] (Homo sapiens, 96 h) was 6.37; at VEGFR2 (KDR) it was 6.38; on EGFR1 (HER-1) it was 7.82; in assay [2] (Homo sapiens, A-431, 72 h), 7.77; in assay [3] (Homo sapiens, SK-BR-3, 72 h), 7.19; in assay [4] (Homo sapiens, 72 h) it was 5.63.

What is called pIC50 is −log10 of the IC50, conventionally taken in molar units. A high value points to a small IC50.
